Source: patent US9562085B2, “Antimicrobial peptide” (priority 2013, dated 2017)
Non-standard residues stand in square brackets, D forms with d. Residues, ends and D or L forms follow the SMILES beside them.

These compounds were tested on S. aureus JAR. Settings: JAR, 2 h.
Type: cell-based
Description: S. aureus JAR is described in Campoccia et al. (Int. J. Artif. Organs, 2008 September; 31(9):841-7).
For the in vitro killing assay with P10 variants, S. aureus JAR ([…] CFU/ml) were incubated for 2 hours at 37° C. with various concentrations of the peptides in PBS or in PBS/human plasma (1/1, v/v). […] The LC99.9 is the average value of two independent experiments.

Row | SMILES | LC99.9 (μM) (50% plasma) | LC99.9 (μM) (PBS)
1 | CC[C@H](C)[C@H](NC(=O)[C@H](CCCCN)NC(=O)[C@H](CCCCN)NC(=O)[C@H](Cc1ccc(O)cc1)NC(=O)[C@H](CCC(=O)O)NC(=O)[C@H](CCCNC(=N)N)NC(=O)[C@H](C)NC(=O)[C@H](CC(C)C)NC(C)=O)C(=O)N[C@H](C(=O)N[C@@H](CCC(=O)O)C(=O)N[C@@H](CCCCN)C(=O)N[C@@H](CC(C)C)C(=O)N[C@@H](CCCCN)C(=O)N[C@@H](CCCNC(=N)N)C(=O)N[C@H](Cc1c[nH]c2ccccc12)C(=O)N[C@@H](CC(C)C)C(=O)N[C@@H](CCCNC(=N)N)C(=O)N[C@@H](CCC(N)=O)C(=O)N[C@H](C(=O)N[C@@H](CC(C)C)C(=O)N[C@@H](CCCNC(=N)N)C(=O)N[C@H](C(=O)N[C@@H](CC(C)C)C(=O)N[C@@H](CCCNC(=N)N)C(N)=O)[C@@H](C)O)C(C)C)C(C)C [Peptide 1301-15, JLAREYKKIVEKLKRwLRQVLRTLRB] (Ac-LAREYKKIVEKLKR[dW]LRQVLRTLR-NH2) | 38.4 µM | 0.4 µM
2 | CC[C@H](C)[C@H](NC(=O)[C@H](CCCCN)NC(=O)[C@H](CCCCN)NC(=O)[C@H](Cc1ccc(O)cc1)NC(=O)[C@H](CCC(=O)O)NC(=O)[C@H](CCCNC(=N)N)NC(=O)[C@H](C)NC(=O)[C@H](CC(C)C)NC(C)=O)C(=O)N[C@H](C(=O)N[C@@H](CCC(=O)O)C(=O)N[C@@H](CCCCN)C(=O)N[C@@H](CC(C)C)C(=O)N[C@@H](CCCCN)C(=O)N[C@@H](CCCNC(=N)N)C(=O)N[C@@H](Cc1c[nH]c2ccccc12)C(=O)N[C@H](CC(C)C)C(=O)N[C@@H](CCCNC(=N)N)C(=O)N[C@@H](CCC(N)=O)C(=O)N[C@H](C(=O)N[C@@H](CC(C)C)C(=O)N[C@@H](CCCNC(=N)N)C(=O)N[C@H](C(=O)N[C@@H](CC(C)C)C(=O)N[C@@H](CCCNC(=N)N)C(N)=O)[C@@H](C)O)C(C)C)C(C)C [Peptide 1301-16, JLAREYKKIVEKLKRWlRQVLRTLRB] (Ac-LAREYKKIVEKLKRW[dL]RQVLRTLR-NH2) | 38.4 µM | 0.6 µM
3 | CC[C@H](C)[C@H](NC(=O)[C@H](CCCCN)NC(=O)[C@H](CCCCN)NC(=O)[C@H](Cc1ccc(O)cc1)NC(=O)[C@H](CCC(=O)O)NC(=O)[C@H](CCCNC(=N)N)NC(=O)[C@H](C)NC(=O)[C@H](CC(C)C)NC(C)=O)C(=O)N[C@H](C(=O)N[C@@H](CCC(=O)O)C(=O)N[C@@H](CCCCN)C(=O)N[C@@H](CC(C)C)C(=O)N[C@@H](CCCCN)C(=O)N[C@@H](CCCNC(=N)N)C(=O)N[C@@H](Cc1c[nH]c2ccccc12)C(=O)N[C@@H](CC(C)C)C(=O)N[C@H](CCCNC(=N)N)C(=O)N[C@@H](CCC(N)=O)C(=O)N[C@H](C(=O)N[C@@H](CC(C)C)C(=O)N[C@@H](CCCNC(=N)N)C(=O)N[C@H](C(=O)N[C@@H](CC(C)C)C(=O)N[C@@H](CCCNC(=N)N)C(N)=O)[C@@H](C)O)C(C)C)C(C)C [Peptide 1301-17, JLAREYKKIVEKLKRWLrQVLRTLRB] (Ac-LAREYKKIVEKLKRWL[dR]QVLRTLR-NH2) | 38.4 µM | 0.6 µM
4 | CC[C@H](C)[C@H](NC(=O)[C@H](CCCCN)NC(=O)[C@H](CCCCN)NC(=O)[C@H](Cc1ccc(O)cc1)NC(=O)[C@H](CCC(=O)O)NC(=O)[C@H](CCCNC(=N)N)NC(=O)[C@H](C)NC(=O)[C@H](CC(C)C)NC(C)=O)C(=O)N[C@H](C(=O)N[C@@H](CCC(=O)O)C(=O)N[C@@H](CCCCN)C(=O)N[C@@H](CC(C)C)C(=O)N[C@@H](CCCCN)C(=O)N[C@@H](CCCNC(=N)N)C(=O)N[C@@H](Cc1c[nH]c2ccccc12)C(=O)N[C@@H](CC(C)C)C(=O)N[C@@H](CCCNC(=N)N)C(=O)N[C@H](CCC(N)=O)C(=O)N[C@H](C(=O)N[C@@H](CC(C)C)C(=O)N[C@@H](CCCNC(=N)N)C(=O)N[C@H](C(=O)N[C@@H](CC(C)C)C(=O)N[C@@H](CCCNC(=N)N)C(N)=O)[C@@H](C)O)C(C)C)C(C)C [Peptide 1301-18, JLAREYKKIVEKLKRWLRqVLRTLRB] (Ac-LAREYKKIVEKLKRWLR[dQ]VLRTLR-NH2) | 38.4 µM | 0.6 µM
5 | CC[C@H](C)[C@H](NC(=O)[C@H](CCCCN)NC(=O)[C@H](CCCCN)NC(=O)[C@H](Cc1ccc(O)cc1)NC(=O)[C@H](CCC(=O)O)NC(=O)[C@H](CCCNC(=N)N)NC(=O)[C@H](C)NC(=O)[C@H](CC(C)C)NC(C)=O)C(=O)N[C@H](C(=O)N[C@@H](CCC(=O)O)C(=O)N[C@@H](CCCCN)C(=O)N[C@@H](CC(C)C)C(=O)N[C@@H](CCCCN)C(=O)N[C@@H](CCCNC(=N)N)C(=O)N[C@@H](Cc1c[nH]c2ccccc12)C(=O)N[C@@H](CC(C)C)C(=O)N[C@@H](CCCNC(=N)N)C(=O)N[C@@H](CCC(N)=O)C(=O)N[C@@H](C(=O)N[C@@H](CC(C)C)C(=O)N[C@@H](CCCNC(=N)N)C(=O)N[C@H](C(=O)N[C@@H](CC(C)C)C(=O)N[C@@H](CCCNC(=N)N)C(N)=O)[C@@H](C)O)C(C)C)C(C)C [Peptide 1301-19, JLAREYKKIVEKLKRWLRQvLRTLRB] (Ac-LAREYKKIVEKLKRWLRQ[dV]LRTLR-NH2) | 32.0 µM | 0.6 µM
